Where “and” joins values, the source holds several entries; their conditions need not be identical. Equal values may be shown once.
Conditions: Liquid, Hot wire method

CCOCC [diethyl ether]
Conditions	thermal conductivity [W/m/K]
234.64 K, 100 kPa	0.1453
234.88 K, 20100 kPa	0.1543
234.9 K, 30300 kPa	0.1565
234.92 K, 20100 kPa	0.1542
235.03 K, 100 kPa	0.1461
235.09 K, 20200 kPa	0.1538
235.1 K, 10100 kPa	0.1496
235.17 K, 5100 kPa	0.1478
235.22 K, 30200 kPa	0.1563
235.4 K, 30400 kPa	0.1559
235.48 K, 10100 kPa	0.1499
235.53 K, 5100 kPa	0.1479
235.89 K, 10100 kPa	0.15
235.93 K, 5100 kPa	0.1477
235.94 K, 100 kPa	0.1456
254.64 K, 20200 kPa	0.1484
254.74 K, 30000 kPa	0.1514
254.75 K, 5200 kPa	0.1408
254.86 K, 30000 kPa	0.1512
254.91 K, 19700 kPa	0.1477
254.95 K, 100 kPa	0.1386
254.98 K, 10100 kPa	0.1427
254.99 K, 4900 kPa	0.1411
255.26 K, 100 kPa	0.1386
255.28 K, 29900 kPa	0.1512
255.34 K, 20200 kPa	0.1475
255.37 K, 5100 kPa	0.1407
255.38 K, 10200 kPa	0.1432
255.69 K, 10000 kPa	0.1427
255.7 K, 100 kPa	0.1386
274.69 K, 100 kPa	0.1315
274.7 K, 20100 kPa	0.1409
274.71 K, 5000 kPa	0.1338
274.71 K, 10000 kPa	0.1363
274.92 K, 30000 kPa	0.1447
274.93 K, 20000 kPa	0.1409
274.96 K, 100 kPa	0.1319
274.97 K, 10000 kPa	0.1362
275.21 K, 30000 kPa	0.145
275.37 K, 100 kPa	0.1317
275.38 K, 5000 kPa	0.1339
275.56 K, 10100 kPa	0.1364
275.64 K, 30000 kPa	0.145
275.7 K, 20000 kPa	0.1407
275.79 K, 5000 kPa	0.134
294.61 K, 20200 kPa	0.1366
294.79 K, 10100 kPa	0.1311
294.81 K, 5100 kPa	0.128
294.83 K, 29900 kPa	0.1419
294.93 K, 20000 kPa	0.1366
295.04 K, 5000 kPa	0.128
295.06 K, 10100 kPa	0.1309
295.08 K, 29700 kPa	0.1416
295.25 K, 20000 kPa	0.1365
295.26 K, 10000 kPa	0.1308
295.31 K, 100 kPa	0.1248
295.43 K, 5100 kPa	0.1277
295.53 K, 29900 kPa	0.1419
295.6 K, 100 kPa	0.1252
296.02 K, 100 kPa	0.125
314.33 K, 5100 kPa	0.1201
314.44 K, 5300 kPa	0.1205
314.55 K, 30100 kPa	0.1357
314.6 K, 10000 kPa	0.1231
314.95 K, 10100 kPa	0.1236
314.95 K, 20100 kPa	0.1291
314.95 K, 30100 kPa	0.1361
315.01 K, 200 kPa	0.1187
315.13 K, 200 kPa	0.1182
315.21 K, 5200 kPa	0.1202
315.39 K, 30100 kPa	0.1356
315.5 K, 200 kPa	0.1182
315.52 K, 10100 kPa	0.1232
315.56 K, 20200 kPa	0.1289
315.91 K, 20100 kPa	0.1287
335.02 K, 5100 kPa	0.1127
335.13 K, 20300 kPa	0.1222
335.21 K, 5100 kPa	0.1127
335.28 K, 200 kPa	0.1093
335.3 K, 30200 kPa	0.1275
335.33 K, 10200 kPa	0.1159
335.33 K, 19900 kPa	0.1217
335.63 K, 5200 kPa	0.1126
335.71 K, 20400 kPa	0.1224
335.72 K, 10100 kPa	0.1162
335.72 K, 30000 kPa	0.1271
335.78 K, 200 kPa	0.1091
336.08 K, 200 kPa	0.1092
336.13 K, 30200 kPa	0.1269
336.17 K, 10100 kPa	0.1159
354.59 K, 30000 kPa	0.1208
354.75 K, 5000 kPa	0.1044
355.05 K, 10000 kPa	0.1084
355.05 K, 30000 kPa	0.1206
355.08 K, 500 kPa	0.1001
355.18 K, 20000 kPa	0.115
355.32 K, 10100 kPa	0.1082
355.37 K, 5000 kPa	0.1048
355.39 K, 30000 kPa	0.1204
355.52 K, 500 kPa	0.1001
355.52 K, 20000 kPa	0.1148
355.74 K, 5000 kPa	0.1045
355.8 K, 10000 kPa	0.1079
355.82 K, 500 kPa	0.1002
356.03 K, 20000 kPa	0.1147
374.62 K, 10000 kPa	0.1004
374.7 K, 5200 kPa	0.0974
374.92 K, 30000 kPa	0.1132
375.01 K, 29700 kPa	0.1131
375.06 K, 10000 kPa	0.1011
375.22 K, 20000 kPa	0.1081
375.25 K, 5100 kPa	0.0973
375.4 K, 5000 kPa	0.0973
375.46 K, 10000 kPa	0.1008
375.51 K, 29800 kPa	0.1135
375.62 K, 20000 kPa	0.1082
375.72 K, 700 kPa	0.0926
376.18 K, 700 kPa	0.0925
376.28 K, 20000 kPa	0.1076
376.8 K, 700 kPa	0.0923

CC(C)OC(C)C [diisopropyl ether]
Conditions	thermal conductivity
235.46 K, 100 kPa	0.1259 W/m/K
235.54 K, 100 kPa	0.1258 W/m/K
236.06 K, 100 kPa	0.1259 W/m/K
236.15 K, 30600 kPa	0.1369 W/m/K
236.25 K, 5000 kPa	0.128 W/m/K
236.29 K, 10100 kPa	0.13 W/m/K
236.33 K, 5000 kPa	0.1275 W/m/K
236.44 K, 20200 kPa	0.1331 W/m/K
236.45 K, 20300 kPa	0.1337 W/m/K
236.53 K, 29900 kPa	0.1364 W/m/K
236.67 K, 5000 kPa	0.1277 W/m/K
236.7 K, 10200 kPa	0.1305 W/m/K
236.8 K, 20300 kPa	0.1337 W/m/K
236.92 K, 30000 kPa	0.1363 W/m/K
237.15 K, 10200 kPa	0.1302 W/m/K
254.4 K, 20400 kPa	0.1276 W/m/K
254.47 K, 30400 kPa	0.1314 W/m/K
254.66 K, 5100 kPa	0.122 W/m/K
254.73 K, 100 kPa	0.1201 W/m/K
254.74 K, 10000 kPa	0.1238 W/m/K
254.76 K, 29500 kPa	0.1312 W/m/K
254.86 K, 10200 kPa	0.1241 W/m/K
254.89 K, 5300 kPa	0.1223 W/m/K
254.9 K, 20100 kPa	0.128 W/m/K
255.08 K, 100 kPa	0.1205 W/m/K
255.13 K, 10100 kPa	0.1236 W/m/K
255.14 K, 5100 kPa	0.1221 W/m/K
255.26 K, 100 kPa	0.1199 W/m/K
255.58 K, 30100 kPa	0.1315 W/m/K
255.61 K, 19900 kPa	0.1285 W/m/K
274.6 K, 30000 kPa	0.1274 W/m/K
274.72 K, 10100 kPa	0.1177 W/m/K
274.86 K, 29900 kPa	0.1269 W/m/K
274.89 K, 20000 kPa	0.122 W/m/K
274.95 K, 5100 kPa	0.1154 W/m/K
275 K, 100 kPa	0.1129 W/m/K
275.02 K, 10000 kPa	0.1178 W/m/K
275.17 K, 30100 kPa	0.1271 W/m/K
275.19 K, 5000 kPa	0.115 W/m/K
275.25 K, 10000 kPa	0.1175 W/m/K
275.3 K, 100 kPa	0.1135 W/m/K
275.51 K, 20100 kPa	0.1218 W/m/K
275.6 K, 5000 kPa	0.1152 W/m/K
275.91 K, 100 kPa	0.1131 W/m/K
276.04 K, 20100 kPa	0.1219 W/m/K
294.58 K, 100 kPa	0.1073 W/m/K
294.64 K, 30100 kPa	0.1197 W/m/K
294.65 K, 10000 kPa	0.1118 W/m/K
294.95 K, 5000 kPa	0.1089 W/m/K
294.98 K, 10000 kPa	0.1115 W/m/K
295.03 K, 100 kPa	0.1071 W/m/K
295.13 K, 20100 kPa	0.1161 W/m/K
295.14 K, 30100 kPa	0.1199 W/m/K
295.27 K, 30000 kPa	0.1198 W/m/K
295.32 K, 10100 kPa	0.1111 W/m/K
295.35 K, 5000 kPa	0.1085 W/m/K
295.6 K, 20100 kPa	0.116 W/m/K
295.7 K, 100 kPa	0.1066 W/m/K
295.82 K, 5000 kPa	0.1087 W/m/K
296.18 K, 20100 kPa	0.1159 W/m/K
314.96 K, 30000 kPa	0.1145 W/m/K
315.03 K, 5000 kPa	0.1027 W/m/K
315.07 K, 20000 kPa	0.1105 W/m/K
315.13 K, 100 kPa	0.0993 W/m/K
315.24 K, 30000 kPa	0.1144 W/m/K
315.26 K, 20000 kPa	0.1099 W/m/K
315.35 K, 10000 kPa	0.105 W/m/K
315.39 K, 5000 kPa	0.1023 W/m/K
315.48 K, 100 kPa	0.0996 W/m/K
315.71 K, 10000 kPa	0.1054 W/m/K
315.73 K, 5100 kPa	0.1027 W/m/K
315.76 K, 20000 kPa	0.1104 W/m/K
315.88 K, 100 kPa	0.0994 W/m/K
315.98 K, 30000 kPa	0.1144 W/m/K
316.26 K, 10000 kPa	0.105 W/m/K
334.99 K, 10100 kPa	0.0998 W/m/K
335.01 K, 5400 kPa	0.0959 W/m/K
335.11 K, 20000 kPa	0.1038 W/m/K
335.23 K, 100 kPa	0.0935 W/m/K
335.29 K, 29900 kPa	0.1093 W/m/K
335.32 K, 10100 kPa	0.0995 W/m/K
335.46 K, 100 kPa	0.0932 W/m/K
335.51 K, 30200 kPa	0.1094 W/m/K
335.68 K, 19700 kPa	0.1043 W/m/K
335.72 K, 30000 kPa	0.1096 W/m/K
335.84 K, 5000 kPa	0.096 W/m/K
335.84 K, 10100 kPa	0.0995 W/m/K
335.94 K, 100 kPa	0.0931 W/m/K
336.31 K, 20100 kPa	0.1042 W/m/K
336.37 K, 5200 kPa	0.0959 W/m/K
354.72 K, 29900 kPa	0.106 W/m/K and 0.1051 W/m/K
354.85 K, 19700 kPa	0.1006 W/m/K
354.97 K, 5000 kPa	0.0913 W/m/K
354.97 K, 19800 kPa	0.1 W/m/K
355.23 K, 10100 kPa	0.0944 W/m/K
355.29 K, 300 kPa	0.0865 W/m/K
355.33 K, 10100 kPa	0.0944 W/m/K
355.45 K, 5000 kPa	0.0916 W/m/K
355.47 K, 20100 kPa	0.1001 W/m/K
355.56 K, 5000 kPa	0.091 W/m/K
355.66 K, 300 kPa	0.0869 W/m/K
355.87 K, 10000 kPa	0.094 W/m/K
356.04 K, 300 kPa	0.0866 W/m/K
356.04 K, 29900 kPa	0.1056 W/m/K
374.75 K, 30000 kPa	0.1021 W/m/K
374.95 K, 29800 kPa	0.1021 W/m/K
375.12 K, 20000 kPa	0.0959 W/m/K
375.24 K, 400 kPa	0.0813 W/m/K
375.25 K, 10000 kPa	0.0893 W/m/K
375.4 K, 5100 kPa	0.0858 W/m/K
375.47 K, 400 kPa	0.0812 W/m/K
375.55 K, 30300 kPa	0.1026 W/m/K
375.57 K, 20000 kPa	0.0957 W/m/K
375.61 K, 10000 kPa	0.0889 W/m/K
375.75 K, 5100 kPa	0.0853 W/m/K
375.87 K, 400 kPa	0.0816 W/m/K
376.05 K, 20000 kPa	0.0955 W/m/K
376.23 K, 10000 kPa	0.089 W/m/K
376.26 K, 5100 kPa	0.0854 W/m/K

From the NIST ThermoML archive (doi:10.1021/je900615b)
